Like-named read-outs stand apart in the source and are kept apart here.
Legend:
[1] = test system: A549 cell lines (lung cancer cell lines); assay: Oxygen Consumption Rate (OCR) of cells, corrected for cell viability (Cyquant); type: cell-based; conditions: Homo sapiens; A549 cells, 24 h drug treatment, OCR value reflecting cell viability; read-out: OCR IC50
Method: The compounds synthesized by the methods disclosed in the Examples of the present invention have been measured on oxygen consumption rate and extracellular oxidation by the methods disclosed in the Test Examples below.
3×10^3 cells from A549 cell lines (purchased from ATCC-American Type Culture Collection), which are lung cancer cell lines, were placed on XF96 cell culture plates using RPMI1640 medium, and cultured at 37° C. in a 5% CO2 condition for 16 hours or more for attachment.
After 16 hours, the cells were treated with the drug at six different concentrations between 0 μM and 20 μM. After 24 hours, the existing medium was removed, and XF assay medium (15 mM D-Glucose, 15 mM sodium pyruvate, 4 mM L-Glutamine, pH 7.4) was added. The cells were retreated with the drug, and additionally cultured in Prep station at 37° C. in a non-CO2 condition for 1 hour. During the one-hour culture in the Prep station, a sensor cartridge was placed and calibrated for 20 minutes, and a plate with cells was placed to analyze the OCR. After the analysis was completed, XF96 plate was measured for cell viability using Cyquant assay, which measures the amount of intracellular DNA, in the following method. XF assay medium and the drug were removed, and the cells were placed in a cryogenic refrigerator (−80° C.) for at least 4 hours to be frozen. After the plate was made to be at room temperature, a solution where a lysis buffer and fluorescent GR dye were mixed was placed by 200 μL per well. After 20-minute reaction at room temperature, […] was measured between […] to calculate cell viability. A measured value of a well untreated with the drug was converted to 100% by reflecting cell viability to the OCR value. Concentration of a drug which inhibits the OCR value reflecting cell viability by 50% was calculated.

[2] = test system: RENCA mouse kidney cancer cells; assay: Antitumor effect in mouse kidney cancer cells, subcutaneous RENCA implant in BALB/c mice; type: in vivo; conditions: for volume of tumor: 10 mg/kg intraperitoneally once a day, BALB/c mice
Method: RENCA, which are mouse kidney cancer cells, were cultured in RPMI 1640 medium containing 10% FBS and 1% anti-anti at 37° C. and 5% CO2. 8- to 10-week-old BALB/c mice with a body weight range of 18 g to 20 g were subjected to a 7-day acclimation period, and then 1×10^6/0.1 mL of RENCA cells in PBS were subcutaneously implanted on the right side of the backs of the mice. Seven days after implantation, group separation was performed based on the average of tumor volumes when the tumor volumes reached […]. A vehicle control group was intraperitoneally injected with PBS containing 2% DMSO and 2% Tween80, and an Example 62 administration group was intraperitoneally injected at a dose of 10 mg/kg, once a day for 2 weeks. Tumor volume measurements were performed twice weekly using Vemier calipers, and the volume of tumor was calculated by substituting long axis and short axis for 0.5×long axis×short axis^2.

[3] = test system: SK-MEL-28 cells; assay: Inhibitory effect of cancer cell proliferation, MTT; type: cell-based; conditions: Homo sapiens, SK-MEL-28, 72 hours, MTT
Method: The compounds prepared in the above Examples were evaluated for the inhibitory effect of cancer cell proliferation according to the method described in the following Test Example.
SK-MEL-28 cells derived from human melanoma were used, and the concentration (cell growth inhibitory concentration, IC50) at which cell growth was inhibited to 50% was measured using MTT reagent (3-(4,5-dimethylthiazole-2-yl)-2,5-[…] bromide) to confirm the inhibitory effect of cancer cell proliferation of the drugs synthesized in Examples 1 to 84.
First, SK-MEL-28 cells were cultured in 96-well plates at a cell number of about 1,250 in RPMI-1640 medium containing 11.1 mM glucose and 10% calf blood serum or 0.75 mM glucose and 10% calf blood serum, and were cultured for 16 hours. […] After treatment of the compound, MTT was added to the culture medium to confirm living cells and further cultured for 2 hours. The resulting formazane crystal was dissolved using dimethyl sulfoxide, and the absorbance of the solution was measured at 555 nm. After culturing for 72 hours, the number of viable cells in the well plate treated with the compounds synthesized in the Examples relative to the number of cells cultured in the well plate without treatment of the compounds was expressed as cell viability (%) according to each treatment concentration. By using this, a cell viability curve graph was prepared, and the inhibitory effect of cancer cell proliferation was confirmed by calculating the concentration of the compound whose growth was inhibited to 50% (IC50).

[4] = 0.75 mM glucose, read-out: SK-MEL-28 0.75 mM glucose Cell viability (IC50 μM)
[5] = 11.1 mM glucose, read-out: SK-MEL-28 11.1 mM glucose Cell viability (IC50 μM)

| IC50 [1] [µM] | IC50 [3, 4] [µM] | IC50 [3, 5] [µM] | SMILES | volume of tumor ([2]; day 7 post tumor implantation (group separation)) [mm³] | volume of tumor ([2]; day 9 post tumor implantation) [mm³] | volume of tumor ([2]; day 12 post tumor implantation) [mm³] | volume of tumor ([2]; day 14 post tumor implantation) [mm³] | volume of tumor ([2]; day 16 post tumor implantation) [mm³] | volume of tumor ([2]; day 20 post tumor implantation) [mm³] | tumor growth compared with the vehicle control group ([2]; from the 6th day of administration, 10 mg/kg intraperitoneally once a day for 2 weeks) |
| --- | --- | --- | --- | --- | --- | --- | --- | --- | --- | --- |
| 1 | 3.1 | 40.1 | Br.c1cc(C[n+]2ccc(N3CCCC3)cc2)cs1 [Example 62, 4-(Pyrrolidin-1-yl)-1-(thiophen-3-ylmethyl)pyridinium bromide] | 81 ± 7 | 146 ± 17 | 227 ± 39 | 364 ± 68 | 545 ± 132 | 775 ± 206 | remarkably inhibited tumor growth |
| 2.1 | 4.15 | 58.4 | Nc1cc(N2CCC2)cc[n+]1Cc1ccsc1 [Example 81] |  |  |  |  |  |  |  |

— patent US20170305861A1, “HETEROARYL COMPOUNDS COMPRISING NITROGEN AND USE THEREOF” (ImmunoMet Therapeutics, Inc, priority 2016, published 2017)
